This is an account of results in US7378274B2, “Regulatory nucleic acid for the ABC1 gene, molecules modifying its activity and therapeutic uses” (Aventis Pharma S.A., priority 2000, dated 2008).

For test [1], the system named is human ABC1 promoter. Briefly: Luciferase reporter under control of the -200 bp human ABC1 promoter (wild type or E-box mutant), transfected RAW 264.7 cells. Conditions: 24 hours, 10 μM 9CRA, 2 μg/ml 22(R)-HOch. The format is cell-based. The text has this: Plasmids containing mutant SP1, AP1, E-box, LXR and deleted E-box fragments were constructed by site-directed mutagenesis using the overlap PCR method and the PXP1 −995 to +120 bp construct (Previato et al., JBC, 1991, 266:18958-63) as template. The primers listed below were used to amplify −200 to +44 bp of the human ABC1 promoter. Upper-case letters represent wild-type sequence whereas lower-case letters represent mutant sequence.
S224-HindIII and 44-HindIII were the upstream and downstream primers used for overlap PCR. The Hind III sites are underlined. The resulting fragments which spanned −200 to +44 of the human ABC1 gene were ligated into the HindIII site of the PXP1 luciferase reporter plasmid (Nordeen et al., Biotechniques, 1988, 6:454-457). All constructs were confirmed by sequencing.
Murine macrophage RAW 264.7 cells and human embryonic kidney 293 cells (American Type Culture Collection, Rockville, Md.) were grown in Dulbecco's modified Eagle's medium (DMEM) with 10% fetal calf serum (FCS). Approximately 1.5×10^5 cells were plated in 12-well plates (Costar, Corning, N.Y.), grown to 50-70% confluency and cotransfected with 1.5 μg of the ABC1 promoter-luciferase plasmid and 0.5 μg of the β-galactosidase vector (pCMVβ;Clontech, Palo Alto, Calif.) by using the Superfectin Reagent Kit (Qiagen, Valencia, Calif.). […]

Test [2] deals with regulatory nucleic acid for the human ABC1 gene. Briefly: Luciferase reporter under control of the -995 to +120 regulatory nucleic acid for the human ABC1 gene, transfected Hepa1-6 cells. The format is cell-based. The text has this:
The region of the regulatory acid for the human ABC1 gene which ranges from the nucleotide at position −-995 up to the nucleotide at position +120, with respect to the transcription start site, was amplified by the PCR technique, with the aid of the following pair of primers: • forward primer S995 (SEQ ID No. 12), of sequence 5′-TTGCCGTCGACTGTTTTGGGTAGTTT-3′; and • reverse primer +220R (SEQ ID No. 13), of sequence 5′-GCCCTGTCGACCGGCTCTGTTGGT-3′, • From human genomic DNA present in a BAC vector from a collection of human BAC vectors.
The DNA fragment amplified was digested with the restriction endonuclease Sal 1, and then inserted into the vector PXP1 described by Nordeen et al. (1988, BioTechniques, 6: 454-457), at the Sal 1 restriction site of this vector.
Cells of the Hepa1-6 line (ATCC, Rockville, Md., USA) were cultured in the medium E-MEM (Minimum Essential Medium with Earle's Salts), to which 10% (v/v) of fetal calf serum (BioWhittaker, Walkersville, Md.) was added.
Approximately 1.5×10^5 cells were distributed into each of the wells of a 12-well (2.5 cm) culture plate, and were cultured until approximately 50 to 70% confluence, and were then cotransformed with 1 μg of the plasmid Sal-Lucif and 0.5 μg of the control vector pBetagel (CloneTech Laboratories Inc., Palo Alto, Calif., USA) using the Superfectin Reagent Kit pack (QIAGEN Inc., Valencia, Calif., USA). Two hours after adding the DNA, the culture medium was removed, and replaced with complete AMEM (Minimum Essential Medium Eagle's Alpha Modification) medium. […]
Freshly thawed aliquot fractions were used to quantify the proteins, using the MicroBCA Kit pack (Pierce, Rockford, Ill., USA), as well as to quantify the luciferase and beta-galactosidase production, using, respectively, the Tropix Luciferase Assay Kit and Galacto-Light Plus Kit packs. […]
For orientation: Reporter assays use an easily measured gene product as a stand-in for the process of interest.

Test [3] relates to E-box in the human ABC1 gene promoter. As to the kind of experiment: Gel mobility shift assay of E-box (EB) probe with RAW cell nuclear extracts. The test is classed as binding. Conditions: nuclear extracts of stimulated versus unstimulated RAW cells. The text has this: Three double-stranded human ABC1 promoter fragments (Fragment A spanning −171 to −71 bp; Fragment EB spanning −156 to −130 bp and Fragment EB spanning −156 to −130 bp) were end-labeled with […] using T4 polynucleotide kinase (Lofstrand, Gaithersburg Md.). Nuclear extracts were isolated from unstimulated RAW 264.7 cell and HepG2 cell as well as RAW 264.7 cells after stimulation with the same concentrations of cholesterol and 22(R)-Hch shown above (Paragon Bioservices Inc. Baltimore, Md.). One ng (10,000 cpm) of radiolabelled probe was added to 2.5 μg nuclear extract in 20 ul of a 20 mM TRIS gel shift buffer (pH 7.9) containing 60 mM KCl, 0.2 mM EDTA, 0.5 mM DTT, 0.25 mM PMS, 1.3 mM MgCl, 10% glycerol, 3% Ficoll and 3 μg of double-stranded poly (dldC) as described (Previato et al., J Biol Chem, 1991, 266:18958-18963) and incubated for 10 minutes on ice followed by 10 minutes at room temperature. The incubated mixture was loaded on a 6% polyacrylamide gel in 0.25×TBE buffer and electrophoresed at 100 V for 90 min followed by autoradiography. For competition assays, nuclear extracts were preincubated for 10 minutes on ice in a 20 μl reaction mixture in the presence or absence of a 100-200-fold excess of double-stranded DNA competitors for Sp1 (−173 to −155 bp), AP1 (−135 to −155 bp), LXR (−54 to −69 bp) and E-box (−158 to −136 bp) before addition of probe. […]

Test [4] deals with USF1 and USF2. Briefly: Western analysis of USF1 and USF2 in RAW cell nuclear extracts. The format is cell-based. The conditions noted are these: RAW cells stimulated with cholesterol or oxysterols. As for the experimental part:
RAW cell nuclear extracts (35 μg protein per lane) from cells stimulated with cholesterol or 22-R-hydroxycholesterol were loaded onto NuPage Bis-Tris 4-12% gradient gels (Invitrogen, Carlsbad, Calif.) and run according to manufacturer's specifications. Proteins were transferred to Immobilon-P PVDF membranes (Millipore Corp, Bedford, Mass.). Antibodies (2 mg/ml stock) were from Santa Cruz Biotechnology, Inc. (Santa Cruz, Calif.) and were used according to manufacturer's specifications. Anti-USF1 C20X (catalog number sc-229X) antibody was used at a dilution of 1/600 and anti-USF2 antibodies C20X (catalog number sc862X) and N18X (catalog number sc861X) were used at a dilution of 1/1000.

Consider `CC1=C(/C=C/C(C)=C\C=C\C(C)=C\C(=O)O)C(C)(C)CCC1` [CRA, 9-cis-retinoic acid], for which the “Effect on ABC1 gene transcription (luciferase reporter)” value in test [1] was “stimulatory effect”.
As for `CC(C)CCC[C@@H](C)[C@H]1CC[C@H]2[C@@H]3CC=C4C[C@@H](O)CC[C@]4(C)[C@H]3CC[C@]12C` [cholesterol], in test [2] (Hepa1-6 cells, in the presence of 50 μg/ml cholesterol, cells recovered 16 hours after medium change), the Luciferase activity was determined as 500000 RLU. Further, the “Increase in the activity” value in test [2] (in the presence versus absence of cholesterol) is given as 1.82. The Normalized activity in test [2] (luciferase normalized to β-galactosidase, in the presence of 50 μg/ml cholesterol) came to 13.25. Also, the “Gel shift banding patterns with EB probe” value in test [3] was “No differences”. In addition, the “Expression of USF immunoreactive bands (43 and 44 KDa)” value in test [4] is “not altered”.
Take `CC(C)CC[C@@H](O)[C@@H](C)[C@H]1CC[C@H]2[C@@H]3CC=C4C[C@@H](O)CC[C@]4(C)[C@H]3CC[C@]12C` [oxysterols, 22-(R)-hydroxycholesterol]: the “Effect on ABC1 gene transcription (luciferase reporter)” value in test [1] was “stimulatory effect”. Besides, the “Gel shift banding patterns with EB probe” value in test [3] is given as “No differences”. In test [4], the “Expression of USF immunoreactive bands (43 and 44 KDa)” value is given as “not altered”.
